Test results reported in patent publication US20220411362A1, “DITERPENOID COMPOUNDS THAT ACT ON PROTEIN KINASE C (PKC)” (K-Gen, Inc., priority 2019, published 2022).
Like-named read-outs stand apart in the source and are kept apart here.

Legend:
[1] = molecular target: T1, C1b domain of human PKCδ (Homo sapiens, UniProt Q05655); test: Competitive 3H-PDBu binding to C1b domain of PKCδ; details: 3H-PDBu competition
T1 construct: Genes encoding C1b domains of human PKCα, δ, ε, θ, and PKD1 (PKCμ) were synthesized; made in house; host or cells: E. coli BL21(DE3)
Description: (§1) Compounds described in this disclosure were tested for binding affinity to C1b domain of PKC isoforms. Compound binding affinity to C1b domain of PKC isoforms was derived from competitive binding assay using radioactive tracer ^3H-PDBu and recombinant GST-C1b or full-length of human PKC proteins based on modified procedures from Methods in Molecular Biology, vol.
(§2) Genes encoding C1b domains of human PKCα, δ, ε, θ, and PKD1 (PKCμ) were synthesized and inserted into pGEX-2TK or pGEX-4T1 vectors for expression and production of GST-C1b proteins in E. coli BL21(DE3) via IPTG induction. The target proteins were purified by glutathione sepharose 4B and followed by ion exchange chromatography if needed to achieve purity >70%. Aliquots of the purified proteins were stored at −80 degree for binding assay (storage buffer: 20 mM Tris pH 8.0, 200 mM NaCl, 10% glycerol, 1 mM DTT).
(§3) The plate was incubated at 37° C. on a shaker at 300 rpm for 10 minutes and then put on ice for 20 minutes. […] The bottom of the filter plate was sealed and 50 μL of MicroScint-20 (PerkinElmer) cocktail was added to each well. ^3H-PDBu trapped in each well was counted using PerkinElmer MicroBeta2 Reader. Data were analyzed using GraphPad Prism5 with the model “log(inhibitor) vs. response-variable slope” to fit the IC50, and then IC50 was transformed to Ki using Cheng-Prusoff equation: Ki=IC50/(1+added radio ligand/Kd). Kd is the binding affinity of each protein preparation to ^3H-PDBu, determined experimentally.

[2] = molecular target: T2, C1b domain of human PKCα (Homo sapiens, UniProt P17252); test: biochemical; format: binding; details: 3H-PDBu competition
T2 construct: Genes encoding C1b domains of human PKCα, δ, ε, θ, and PKD1 (PKCμ) were synthesized; made in house; host or cells: E. coli BL21(DE3)
Description: as §1, §2
The plate was incubated at 37° C. on a shaker at 300 rpm for 10 minutes and then put on ice for 20 minutes. […] The bottom of the filter plate was sealed and 50 μL of MicroScint-20 (PerkinElmer) cocktail was added to each well. ^3H-PDBu trapped in each well was counted using PerkinElmer MicroBeta2 Reader. […] Kd is the binding affinity of each protein preparation to ^3H-PDBu, determined experimentally.

[3] = molecular target: T3, C1b domain of human PKCθ (Homo sapiens, UniProt Q04759); test: Competitive 3H-PDBu binding to C1b domain of PKCθ
T3 construct: Genes encoding C1b domains of human PKCα, δ, ε, θ, and PKD1 (PKCμ) were synthesized; made in house; host or cells: E. coli BL21(DE3)
T3 sequence (Q04759 231-281 limits assumed): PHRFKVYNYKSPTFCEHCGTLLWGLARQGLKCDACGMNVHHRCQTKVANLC
Description: as §1, §2, §3

[4] = molecular target: T4, C1b domain of human PKCε (Homo sapiens, UniProt Q02156); test: Competitive 3H-PDBu binding to C1b domain of PKCε
T4 construct: Genes encoding C1b domains of human PKCα, δ, ε, θ, and PKD1 (PKCμ) were synthesized; made in house; host or cells: E. coli BL21(DE3)
Description: as §1, §2, §3

[5] = molecular target: T5, C1b domain of human PKD1 (PKCμ) (Homo sapiens, UniProt Q15139); test: biochemical; format: binding
T5 construct: Genes encoding C1b domains of human PKCα, δ, ε, θ, and PKD1 (PKCμ) were synthesized; made in house; host or cells: E. coli BL21(DE3)
T5 sequence (Q15139 270-320 limits assumed): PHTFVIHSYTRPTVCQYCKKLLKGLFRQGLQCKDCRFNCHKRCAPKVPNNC
Description: as §1, §2, §3

[6] = tested on: A549 non-small cell lung cancer cell line; test: Proliferation of A549 (CellTiter Glo); format: cell-based; details: Homo sapiens, read-out: IC50 μM (A549 Cell Line)
Description: (§4) The diterpenoid compounds were tested in A549, a non-small cell lung cancer cell line harboring a K-Ras activating mutation. Briefly, A549 cells at a density of 1,000 cells/well were seeded in 96-well plates and incubated at 37° C. for 24 hours. A series of different concentrations of compound stocks (500×) were prepared by 3-fold serial dilution in DMSO. These compounds were further diluted in culture media and then added to cells so that the final DMSO concentration was not exceeding 0.25%. After 96 hours of incubation, 50 μL of CellTiter Glo reagent (Promega) was added to each well and luminescence was measured after 10 minutes using EnVision (PerkinElmer). Luminescence from cells treated with DMSO alone was set as Max and % of inhibition was calculated as follows: Inhibition %=(Max−Sample value)/Max×100. Data was analyzed using XL-fit software (ID Business Solutions Ltd.) and IC50, relative IC50, and % of top inhibition was calculated. Some of the compounds in this disclosure were very potent in blocking proliferation of A549 lung cancer cells at low nM range. In addition, potency of inhibiting A549 proliferation correlated well with its binding affinity to PKCs for this series of compounds. In other words, higher affinity binders had stronger inhibitory effects on A549 proliferation. This further support the notion that activation, rather than inhibition, of certain PKC isoforms is required to block proliferation of cancer cells, some of which may harbor K-Ras mutations. This is in sharp contrast to previous literature and common belief that inhibition of PKC is necessary to block cancer cell growth (Kang, 2014, New Journal of Science, 2014:1-36). Data presented here is in agreement with recent findings that many loss-of-function but not gain-of-function mutations of PKC isoforms have been identified in many human cancers (Antal et al., 2015, Cell, 160:489-502).

[7] = tested on: HL-60 (Leukemia) cell line; test: Proliferation of HL-60; format: cell-based
Description: as §4
(§5) The compounds in this disclosure were tested for their potency in blocking proliferation of a few other cancer cells lines, including K-Ras mutant pancreatic cell lines Panc2.13 and KP-4, leukemia cell line HL-60, and lymphoma cell lines Namalwa and Mino. Similar procedures as in Example 67 were followed. Initial cell numbers seeded in 96-well plates were different for different cell lines: 3000 cells/well for Panc2.13; 800-1000 cells/well for KP-4; 5000 cells/well for HL-60; 5000-10000 cells/well for Namalwa and Mino. A ratio ratio of (IC50 of K01)/(IC50 of compound) (data in parenthesis in Table 5) was used to normalize the compound potency from different assay batches to a common comparator […].

[8] = tested on: Namalwa (Lymphoma) cell line; test: Proliferation of Namalwa; format: cell-based; details: for ratio of (IC50 of K01)/(IC50 of compound), Namalwa: value in parenthesis; for IC50: read-out: IC50 in μM Namalwa (Lymphoma)
Description: as §4, §5

[9] = tested on: Mino (Lymphoma) cell line; test: Proliferation of Mino; format: cell-based
Description: as §4, §5

[10] = Homo sapiens, HL-60, read-out: IC50 in μM HL-60 (Leukemia)
[11] = Homo sapiens, MINO, read-out: IC50 in μM Mino (Lymphoma)

T4 sequence (Q02156 242-292 limits assumed): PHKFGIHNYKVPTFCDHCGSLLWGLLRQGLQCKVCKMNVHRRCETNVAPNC
T1 sequence (Q05655 230-280 limits assumed): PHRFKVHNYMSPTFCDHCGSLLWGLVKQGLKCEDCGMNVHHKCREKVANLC

SMILES	Ki ([1]; Ki PKCδ)	Ki ([2]; Ki PKCα)	Ki [3]	Ki [4]	Ki [5]	IC50 ([6]; A549, 96 h)	ratio of (IC50 of K01)/(IC50 of compound), HL-60 ([7]; HL-60; value in parenthesis)	ratio of (IC50 of K01)/(IC50 of compound), Namalwa [8]	IC50 [8]	ratio of (IC50 of K01)/(IC50 of compound), Mino ([9]; Mino; value in parenthesis)	other results
CC1=C[C@H]2[C@@]3(O)[C@H](C)C[C@]4(OC(=O)CCC5CCCC5)[C@H]([C@@H]3C=C(CO)C[C@]2(O)C1=O)C4(C)C [Compound K101-C1301]	5 to 10 nM	100 to 200 nM	1 to 30 nM	5 to 10 nM	< 5 nM	0.03 to 0.06 µM	9.23	1.73	0.03 to 0.06 µM	11	IC50 [7, 10]: 0.03 to 0.06 µM; IC50 [9, 11]: 0.001 to 0.01 µM
CC1=C[C@H]2[C@@]3(O)[C@H](C)C[C@]4(OC(=O)CCc5ccc(C(F)(F)F)cc5)[C@H]([C@@H]3C=C(CO)C[C@]2(O)C1=O)C4(C)C [Compound K101-C1302]	< 5 nM	30 to 60 nM	< 5 nM	< 5 nM	< 5 nM	0.01 to 0.03 µM	72	13.8	0.001 to 0.01 µM	75	IC50 [7, 10]: 0.001 to 0.01 µM; IC50 [9, 11]: < 0.001 µM
CC1=C[C@H]2[C@@]3(O)[C@H](C)C[C@]4(OC(=O)Cc5ccccc5)[C@H]([C@@H]3C=C(CO)C[C@]2(O)C1=O)C4(C)C [Compound K101-C1304]	–	–	–	–	–	–	18	3.29	0.01 to 0.03 µM	15.6	Ki ([1]; read-out: Ki PKCδ): 5 to 10 nM; Ki ([2]; read-out: Ki PKCα): 100 to 200 nM; Ki ([3]; C1b domain of human PKCθ, 3H-PDBu competition, read-out: Ki PKCθ): 5 to 10 nM; Ki ([4]; C1b domain of human PKCε, 3H-PDBu competition, read-out: Ki PKCε): 1 to 30 nM; Ki ([5]; C1b domain of human PKD1 (PKCμ), 3H-PDBu competition, read-out: Ki PKD1/PKCμ): < 5 nM; IC50 ([6]; A549, 96 hours incubation, CellTiter Glo): 0.03 to 0.06 µM; IC50 ([7]; Homo sapiens, HL-60; read-out: IC50 in μM HL-60 (Leukemia)): 0.01 to 0.03 µM; IC50 ([9]; Homo sapiens, MINO; read-out: IC50 in μM Mino (Lymphoma)): 0.001 to 0.01 µM
CC1=C[C@H]2[C@@]3(O)[C@H](C)C[C@]4(OC(=O)CC5CC6(C5)CN(C(=O)OC(C)(C)C)C6)[C@H]([C@@H]3C=C(CO)C[C@]2(O)C1=O)C4(C)C [Compound K101-C1312]	5 to 10 nM	100 to 200 nM	1 to 30 nM	1 to 30 nM	< 5 nM	0.03 to 0.06 µM	–	–	–	–	–
CC1=C[C@H]2[C@@]3(O)[C@H](C)C[C@]4(OC(=O)/C=C/c5ccc(C(F)(F)F)cc5)[C@H]([C@@H]3C=C(CO)C[C@]2(O)C1=O)C4(C)C [Compound K101-C1313]	1 to 30 nM	200 to 400 nM	1 to 30 nM	1 to 30 nM	< 5 nM	0.06 to 0.1 µM	–	–	–	–	–
CC1=C[C@H]2[C@@]3(O)[C@H](C)C[C@]4(OC(=O)[C@@H](N)CCCCCCc5ccc(C(F)(F)F)cc5)[C@H]([C@@H]3C=C(CO)C[C@]2(O)C1=O)C4(C)C [Compound K101-C135902]	5 to 10 nM	–	1 to 30 nM	1 to 30 nM	5 to 10 nM	0.01 to 0.03 µM	–	–	–	–	Ki PKCα [2]: E (E=>60 nM and ≤10 nM)
CC1=C[C@H]2[C@@]3(O)[C@H](C)C[C@]4(OC(=O)[C@H](N)CCCCCCCCc5ccccc5)[C@H]([C@@H]3C=C(CO)C[C@]2(O)C1=O)C4(C)C [Compound K101-C136101]	1 to 30 nM	400 to 800 nM	1 to 30 nM	1 to 30 nM	5 to 10 nM	0.01 to 0.03 µM	–	–	–	–	–
CC1=C[C@H]2[C@@]3(O)[C@H](C)C[C@]4(OC(=O)[C@@H](N)CCCCCCCCc5ccccc5)[C@H]([C@@H]3C=C(CO)C[C@]2(O)C1=O)C4(C)C [Compound K101-C136102]	1 to 30 nM	30 to 60 nM	< 5 nM	5 to 10 nM	< 5 nM	0.001 to 0.01 µM	–	–	–	–	–
CC1=C[C@H]2[C@@]3(O)[C@H](C)C[C@]4(OC(=O)[C@H](N)CCCCCCc5ccc(C(F)F)cc5)[C@H]([C@@H]3C=C(CO)C[C@]2(O)C1=O)C4(C)C [Compound K101-C137001]	1 to 30 nM	800 to 1000 nM	30 to 60 nM	30 to 60 nM	1 to 30 nM	0.1 to 0.2 µM	–	–	–	–	–
CC1=C[C@H]2[C@@]3(O)[C@H](C)C[C@]4(OC(=O)[C@@H](N)CCCCCCc5ccc(C(F)F)cc5)[C@H]([C@@H]3C=C(CO)C[C@]2(O)C1=O)C4(C)C [Compound K101-C137002]	1 to 30 nM	200 to 400 nM	1 to 30 nM	30 to 60 nM	5 to 10 nM	0.1 to 0.2 µM	–	–	–	–	–
